Drawing on the NIST ThermoML archive (doi:10.1016/j.fluid.2005.05.015), this text covers Normal melting temperature for 1 compound.

The conditions of the series: Crystal 1; visual observation.

Numbers after ± are expanded uncertainties.

As for `CC[N+](C)(C)CCO.[Br-]` [ethyl(2-hydroxyethyl)dimethylammonium bromide], the Normal melting temperature stood at 268.30 ± 1 °C.
